# According to patent publication US20110213021A1, “COMPOSITIONS AND METHODS FOR TREATING NOS-ASSOCIATED DISEASES” (Indigene Pharmaceuticals, Inc., priority 2008, published 2011):
# pIC50: −log10 of the molar value.
# Assays:
# inducible NOS = target: T1, inducible NOS (Mus musculus, UniProt P29477); assay: inducible NOS activity assay (formation of nitrite from arginine, Griess reagent); assay type: biochemical
# T1 construct: using an enzyme isolated from LPS-+INFγ-treated mouse macrophages; endogenous in cells; host or cells: LPS + IFN-gamma-treated mouse macrophages (enzyme isolated from the cells)
# Experimental: First, an inducible NOS activity assay was performed on the recrystallized salt of Example 2. This assay measures the formation of nitrite from arginine using an enzyme isolated from LPS-+INFγ-treated mouse macrophages. In this assay, the test salt (as a 10-fold concentrated solution in H2O), reference compound or water (control) are incubated for 180 min at 37° C. with the enzyme (0.5 U) in a buffer containing 40 mM Tris-HCl (pH 8.0), 0.5 mM NADPH, 4 μM FAD, 12 μM BH4, 3 mM DTT and 0.1 mM L-arginine. For basal control measurements, the enzyme is omitted from the incubation medium. Following incubation, Griess reagent containing 0.05% naphtylene diamine, 0.5% sulfanilamide and 2.5% orthophosphoric acid is added and the samples are incubated for 10 min at 22° C. The amount of nitrite produced is then quantified with a microplate reader (Spectrafluorplus, Tecan) by measuring the absorbance at λ=550 nm. The results are expressed as IC50 in M. This assay may be performed using the standard inhibitory reference compound, I400 W, which may be tested in each experiment at several concentrations to obtain an inhibition curve from which its IC50 value is calculated. Further information regarding this protocol may be found in Tayeh and Marletta (1989), Macrophage oxidation of L-arginine to nitric oxide, nitrite, and nitrate, J. Biol. Chem., 264: 19654.
# human HL-60 cells = assay: superoxide O2- secretion from PMA-stimulated HL-60 cells (cytochrome C reduction); assay type: cell-based; conditions: 0.25 h, 30 nM PMA-stimulated HL-60 cells, 15 min at 37° C.
# Experimental: In addition, the effect on superoxide O2 secretion was measured. This assay quantifies the secretion of superoxide O2^− from phorbol 12-mysirate 13-acetate (PMA)-stimulated human HL-60 cells, by the measurement of cytochrome C reduction. The test salt (as a 10-fold concentrated solution in H2O), reference compound or water (control) are pre-incubated for 15 min at 37° C. with HL-60 cells (5×10^5 cells) suspended in a buffer containing 137 mM NaCl, 2.68 mM KCl, 0.9 mM CaCl2, 0.5 mM MgCl2, 8.1 mM Na2HPO4, 1.47 mM KH2PO4 (pH 7.4 ) and 19 μM cytochrome C. The absorbance is then measured at λ=550 nm using a spectrophotometer to detect any compound interference with the photometric detection at this wavelength. Thereafter, the reaction is initiated by the addition of 30 nM PMA and the mixture is incubated for 15 min at 37° C. in the dark. For basal control measurements, the incubation medium also contains 275 U/ml superoxyde dismutase (SOD) to catalyze the destruction of superoxide O2^−. […] The absorbance is then measured at λ=550 nm and the activity is determined by subtracting signal measured in the presence of SOD from that measured in its absence. This assay may be performed using the standard inhibitory reference compound, diphenyleneiodonium, which may be tested in each experiment at several concentrations to obtain an inhibition curve from which its IC50 value is calculated. […]
# rat liver microsomes = assay: lipid peroxidation: ascorbic acid-induced production of malonaldehyde in liver microsomes; assay type: biochemical; conditions: 0.1 mM ascorbic acid, 20 min at 37° C.
# Experimental: Furthermore, the effect on lipid peroxidation quantified by the measurement of ascorbic acid-induced production of malonaldehyde in rat liver microsomes. Specifically, homogenates of liver microsomes (150 μg) are pre-incubated for 5 min at 37° C. with the test salt (as a 10-fold concentrated solution in H2O), reference compound or water (control) in a buffer containing 300 mM NaCl, 0.1 mM FeCl3 and 8 mM NaH2PO4/Na2HPO4 (pH 7.4). Thereafter, the reaction is initiated by the addition of 0.1 mM ascorbic acid and the mixture is incubated for 20 min at 37° C. For basal control measurements, ascorbic acid is omitted from the incubation medium. These measurements are also used to detect any compound interference with the photometric detection at the selected wavelength. Following incubation, the reaction is stopped by the addition of 5 mM EDTA/NaOH. […] The amount of lipid peroxides present in the supernatant is quantified by measuring the absorbance at λ=532 nm using a spectrophotometer. This assay may be performed using the standard inhibitory reference compound N-propyl gallate, which may be tested in each experiment at several concentrations to obtain an inhibition curve from which its IC50 value is calculated. […]
structure (smiles),measurement,setting,value
CC(C)=NN=C(N)N,pIC50,"inducible NOS; enzyme isolated from LPS-+INFγ-treated mouse macrophages, 180 min at 37° C., 0.1 mM L-arginine",4.43
same,"nH, inducible NOS activity",inducible NOS; same inhibition curve as the IC50,0.9
same,pIC50,human HL-60 cells,3.51
same,pIC50,rat liver microsomes,2.74
